# Reference: ChEMBL document CHEMBL1201862, “PubChem BioAssay data set” (2004)
# The source made the active and inactive calls.
# What was measured:
# [1] = biological target: Beta-galactosidase (Escherichia coli, UniProt Q8VNN2); assay: PubChem AID 485352; type: functional
# [2] = biological target: Type-1 angiotensin II receptor (Homo sapiens, UniProt P30556); assay: antagonism of angiotensin II type 1 receptor – cell-based, uHTS hits, selectivity assay for APJ receptor antagonist project, dose response (AID 463214); type: functional;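 note: antagonist potency against angiotensin II stimulated AT1 response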
# [3] = biological target: T1, Caspase-3 (Homo sapiens, UniProt P42574); assay: inhibition of recombinant caspase-3 activity – biochemical, luminescence, set 2, selectivity assay for SENP protease inhibitor project, SAR follow-up (AID 588599); type: functional
# T1 sequence (P42574 whole entry): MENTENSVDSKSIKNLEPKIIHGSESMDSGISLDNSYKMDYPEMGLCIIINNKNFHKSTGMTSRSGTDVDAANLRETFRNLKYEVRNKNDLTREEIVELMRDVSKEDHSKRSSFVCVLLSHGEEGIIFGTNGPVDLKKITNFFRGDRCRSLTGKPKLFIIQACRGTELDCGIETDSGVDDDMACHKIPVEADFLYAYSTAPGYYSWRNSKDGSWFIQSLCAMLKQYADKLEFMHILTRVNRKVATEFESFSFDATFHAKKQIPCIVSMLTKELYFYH
# [4] = biological target: T2, Sentrin-specific protease 6 (Homo sapiens, UniProt Q9GZR1); assay: inhibition of human SENP6 catalytic domain – biochemical, luminescence, set 2, SAR follow-up (AID 588598); type: functional
# T2 sequence (Q9GZR1 whole entry): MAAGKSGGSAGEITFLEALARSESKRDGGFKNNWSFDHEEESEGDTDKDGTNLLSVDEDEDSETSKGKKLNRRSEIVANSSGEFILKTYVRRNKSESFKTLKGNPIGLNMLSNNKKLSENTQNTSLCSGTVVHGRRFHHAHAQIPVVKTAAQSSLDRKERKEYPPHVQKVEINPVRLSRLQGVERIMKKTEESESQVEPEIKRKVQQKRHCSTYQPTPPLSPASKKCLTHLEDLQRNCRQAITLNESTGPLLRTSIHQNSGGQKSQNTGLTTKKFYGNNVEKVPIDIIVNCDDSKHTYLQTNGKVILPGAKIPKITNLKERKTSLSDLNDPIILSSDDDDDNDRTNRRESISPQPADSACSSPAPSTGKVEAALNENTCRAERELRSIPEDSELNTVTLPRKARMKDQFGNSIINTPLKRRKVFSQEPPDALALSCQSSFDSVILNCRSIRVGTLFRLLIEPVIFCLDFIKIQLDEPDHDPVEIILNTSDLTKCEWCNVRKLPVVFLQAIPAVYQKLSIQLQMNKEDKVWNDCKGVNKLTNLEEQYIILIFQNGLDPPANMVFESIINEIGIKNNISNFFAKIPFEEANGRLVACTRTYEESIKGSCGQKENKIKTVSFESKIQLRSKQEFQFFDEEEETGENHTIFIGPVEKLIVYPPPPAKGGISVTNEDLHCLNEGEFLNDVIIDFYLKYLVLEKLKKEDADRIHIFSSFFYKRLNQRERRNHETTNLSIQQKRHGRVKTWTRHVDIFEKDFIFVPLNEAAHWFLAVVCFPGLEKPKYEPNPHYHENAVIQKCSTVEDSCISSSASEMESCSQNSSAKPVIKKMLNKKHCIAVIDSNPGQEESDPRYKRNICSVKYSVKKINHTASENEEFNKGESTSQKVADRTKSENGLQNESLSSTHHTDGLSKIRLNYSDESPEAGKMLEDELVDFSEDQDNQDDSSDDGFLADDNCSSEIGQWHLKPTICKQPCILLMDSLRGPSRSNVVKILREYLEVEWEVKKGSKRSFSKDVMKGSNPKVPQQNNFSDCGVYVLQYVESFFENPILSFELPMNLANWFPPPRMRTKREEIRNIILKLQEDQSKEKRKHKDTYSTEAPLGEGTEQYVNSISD
# [5] = biological target: T3, Sentrin-specific protease 7 (Homo sapiens, UniProt Q9BQF6); assay: inhibition of human SENP7 cleavage activity – biochemical, luminescence, set 2, SAR follow-up (AID 588600); type: functional
# T3 sequence (Q9BQF6 whole entry): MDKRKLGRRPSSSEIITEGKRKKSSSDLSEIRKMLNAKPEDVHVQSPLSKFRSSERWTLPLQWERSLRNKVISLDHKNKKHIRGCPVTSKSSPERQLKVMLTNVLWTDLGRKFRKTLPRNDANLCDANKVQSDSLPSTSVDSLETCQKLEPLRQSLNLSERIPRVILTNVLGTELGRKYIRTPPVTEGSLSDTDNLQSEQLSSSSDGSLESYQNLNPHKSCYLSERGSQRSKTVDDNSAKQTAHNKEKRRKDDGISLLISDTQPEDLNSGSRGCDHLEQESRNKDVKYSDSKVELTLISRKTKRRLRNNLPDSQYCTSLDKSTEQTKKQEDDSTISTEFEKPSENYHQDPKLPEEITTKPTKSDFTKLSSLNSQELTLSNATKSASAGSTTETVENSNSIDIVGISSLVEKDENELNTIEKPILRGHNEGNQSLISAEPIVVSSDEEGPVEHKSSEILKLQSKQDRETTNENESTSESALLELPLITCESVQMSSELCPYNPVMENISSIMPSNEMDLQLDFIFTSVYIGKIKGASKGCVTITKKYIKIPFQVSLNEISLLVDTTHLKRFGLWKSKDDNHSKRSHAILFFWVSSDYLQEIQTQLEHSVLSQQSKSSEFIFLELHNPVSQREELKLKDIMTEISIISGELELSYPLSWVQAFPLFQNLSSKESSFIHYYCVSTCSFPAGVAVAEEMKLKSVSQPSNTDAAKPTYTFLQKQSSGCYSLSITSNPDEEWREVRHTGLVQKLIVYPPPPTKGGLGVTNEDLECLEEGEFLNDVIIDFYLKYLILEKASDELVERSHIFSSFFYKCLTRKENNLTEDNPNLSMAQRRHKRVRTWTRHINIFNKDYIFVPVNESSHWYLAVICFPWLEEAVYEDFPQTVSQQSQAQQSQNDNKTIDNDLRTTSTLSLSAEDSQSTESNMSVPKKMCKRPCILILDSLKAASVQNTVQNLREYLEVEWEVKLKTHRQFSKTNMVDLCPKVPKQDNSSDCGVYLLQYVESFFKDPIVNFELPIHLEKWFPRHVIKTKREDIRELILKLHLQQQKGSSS
# [6] = biological target: T4, Sentrin-specific protease 8 (Homo sapiens, UniProt Q96LD8); assay: inhibition of sentrin protease 8 – biochemical, luminescence, set 2, SAR follow-up (AID 588601); type: functional
# T4 sequence (Q96LD8 whole entry): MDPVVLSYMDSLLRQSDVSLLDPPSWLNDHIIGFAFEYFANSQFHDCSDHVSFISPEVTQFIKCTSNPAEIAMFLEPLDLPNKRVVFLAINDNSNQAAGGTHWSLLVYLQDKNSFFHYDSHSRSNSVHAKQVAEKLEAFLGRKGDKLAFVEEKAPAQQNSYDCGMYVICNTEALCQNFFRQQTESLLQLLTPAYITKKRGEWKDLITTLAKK
# [7] = tested on: HEK293; assay: cells; type: functional, cell-based; details: Homo sapiens
# [8] = biological target: Nuclear receptor subfamily 0 group B member 1 (Homo sapiens, UniProt P51843); assay: Luminescence-based cell-based high throughput dose response assay for inhibitors of the orphan nuclear receptor subfamily 0, group B, member 1 (DAX1; NR0B1). [Related pubchem assays (depositor defined):AID504766, AID504790]; type: functional
# [9] = biological target: T5, DNA repair and recombination protein RAD54-like (Homo sapiens, UniProt Q92698); assay: RAD54 Holliday junction migration blockers – biochemical, fluorescence, cherry-picked samples, dose series, confirmation (AID 651657); type: functional
# T5 sequence (Q92698 whole entry): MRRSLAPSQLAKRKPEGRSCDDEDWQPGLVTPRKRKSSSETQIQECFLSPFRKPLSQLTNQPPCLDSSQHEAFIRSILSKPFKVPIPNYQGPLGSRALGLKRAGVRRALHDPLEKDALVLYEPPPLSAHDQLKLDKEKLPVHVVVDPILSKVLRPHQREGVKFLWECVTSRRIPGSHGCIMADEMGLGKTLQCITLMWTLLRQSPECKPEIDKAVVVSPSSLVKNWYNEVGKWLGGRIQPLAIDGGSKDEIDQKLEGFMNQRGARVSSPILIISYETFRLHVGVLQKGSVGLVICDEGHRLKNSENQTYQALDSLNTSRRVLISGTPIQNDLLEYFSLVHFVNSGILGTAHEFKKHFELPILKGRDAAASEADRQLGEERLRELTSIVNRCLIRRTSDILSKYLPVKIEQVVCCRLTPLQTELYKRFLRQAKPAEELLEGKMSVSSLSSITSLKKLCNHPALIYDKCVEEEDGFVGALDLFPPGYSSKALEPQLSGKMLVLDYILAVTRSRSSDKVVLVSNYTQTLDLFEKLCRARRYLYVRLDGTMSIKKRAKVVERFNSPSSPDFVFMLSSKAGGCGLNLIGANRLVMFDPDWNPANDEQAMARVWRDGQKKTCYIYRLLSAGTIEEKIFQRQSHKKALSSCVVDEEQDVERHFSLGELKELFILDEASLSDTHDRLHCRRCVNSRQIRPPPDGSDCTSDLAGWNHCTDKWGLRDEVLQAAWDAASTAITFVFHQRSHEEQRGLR
# Sequence of Type-1 angiotensin II receptor (P30556 whole entry): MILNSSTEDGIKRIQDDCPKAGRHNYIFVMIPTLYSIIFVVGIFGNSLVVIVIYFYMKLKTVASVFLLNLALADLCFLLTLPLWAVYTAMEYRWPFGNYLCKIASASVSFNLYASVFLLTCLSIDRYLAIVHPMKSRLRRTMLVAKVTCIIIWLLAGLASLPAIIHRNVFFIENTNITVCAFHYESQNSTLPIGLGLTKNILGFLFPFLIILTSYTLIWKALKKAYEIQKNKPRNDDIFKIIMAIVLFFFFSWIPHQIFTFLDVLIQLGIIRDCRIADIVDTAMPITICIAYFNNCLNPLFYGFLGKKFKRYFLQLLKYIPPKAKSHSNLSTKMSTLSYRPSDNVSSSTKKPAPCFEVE
# Sequence of Beta-galactosidase (Q8VNN2 whole entry): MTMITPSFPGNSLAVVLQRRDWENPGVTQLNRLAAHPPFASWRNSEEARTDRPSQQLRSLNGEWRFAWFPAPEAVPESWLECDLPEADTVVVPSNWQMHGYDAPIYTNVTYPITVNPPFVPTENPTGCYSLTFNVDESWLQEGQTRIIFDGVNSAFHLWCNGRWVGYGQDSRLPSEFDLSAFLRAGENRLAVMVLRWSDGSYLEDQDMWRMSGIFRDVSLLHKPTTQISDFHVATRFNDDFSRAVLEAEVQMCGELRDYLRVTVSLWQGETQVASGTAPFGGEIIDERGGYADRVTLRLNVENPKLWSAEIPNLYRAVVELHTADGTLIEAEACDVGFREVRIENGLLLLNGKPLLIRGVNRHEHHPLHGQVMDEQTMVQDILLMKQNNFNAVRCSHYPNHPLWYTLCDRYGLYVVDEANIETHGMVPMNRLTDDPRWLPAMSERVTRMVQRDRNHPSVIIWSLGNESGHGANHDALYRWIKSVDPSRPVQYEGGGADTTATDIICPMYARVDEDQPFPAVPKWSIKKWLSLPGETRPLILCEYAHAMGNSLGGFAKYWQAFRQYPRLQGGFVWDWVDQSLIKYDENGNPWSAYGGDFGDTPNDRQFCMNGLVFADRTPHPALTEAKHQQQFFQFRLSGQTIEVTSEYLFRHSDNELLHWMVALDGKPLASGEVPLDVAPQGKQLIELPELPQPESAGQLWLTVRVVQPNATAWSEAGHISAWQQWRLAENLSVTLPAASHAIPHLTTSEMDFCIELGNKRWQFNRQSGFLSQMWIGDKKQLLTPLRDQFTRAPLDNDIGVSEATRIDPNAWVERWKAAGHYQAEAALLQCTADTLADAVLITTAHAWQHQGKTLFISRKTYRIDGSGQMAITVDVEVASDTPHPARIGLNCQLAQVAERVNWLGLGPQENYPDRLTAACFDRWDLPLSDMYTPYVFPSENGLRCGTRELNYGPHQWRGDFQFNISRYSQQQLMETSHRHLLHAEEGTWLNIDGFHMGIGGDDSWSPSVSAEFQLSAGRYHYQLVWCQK
# Sequence of Nuclear receptor subfamily 0 group B member 1 (P51843 whole entry): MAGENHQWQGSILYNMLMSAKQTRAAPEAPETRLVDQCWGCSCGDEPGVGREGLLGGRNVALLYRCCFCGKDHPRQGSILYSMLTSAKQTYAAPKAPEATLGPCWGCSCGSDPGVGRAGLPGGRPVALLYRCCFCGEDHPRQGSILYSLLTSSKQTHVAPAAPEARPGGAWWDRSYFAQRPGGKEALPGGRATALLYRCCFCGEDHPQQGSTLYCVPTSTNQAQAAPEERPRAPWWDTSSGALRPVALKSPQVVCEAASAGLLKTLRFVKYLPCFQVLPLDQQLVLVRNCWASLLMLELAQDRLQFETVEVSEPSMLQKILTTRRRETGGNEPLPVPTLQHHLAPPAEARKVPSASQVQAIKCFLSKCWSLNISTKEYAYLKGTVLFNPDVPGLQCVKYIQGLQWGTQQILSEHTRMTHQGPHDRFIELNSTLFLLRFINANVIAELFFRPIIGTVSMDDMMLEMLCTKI
smiles,measurement,setting,value
CN(C)c1ccc(/C=C2\N=C(c3ccc(Cl)c([N+](=O)[O-])c3)NC2=O)cc1,EC50,[1],> 40 µM (inactive)
same,IC50,[2],> 40 µM (not active)
Cc1[nH]c2ccccc2c1C(=O)C(=O)N1CCC2(CC1)OCCO2,IC50,[3],> 99 µM (inactive)
same,IC50,[4],> 99 µM (inactive)
same,IC50,[5],> 99 µM (inactive)
same,IC50,[6],> 99 µM (inactive)
CCN(CC)CCCNC(=O)c1cc2c(=O)n(C)c3ccccc3c2n1C,IC50,[7],> 67.5 µM (inactive)
same,IC50,[8],> 67.5 µM (inactive)
same,AC50,[9],26.9 µM (active)
